The values that follow come from patent US11339144B2 (Navitor Pharmaceuticals, Inc., priority 2017, dated 2022).

Assay [1] concerns the target HA-GST-Rheb (GTP-γ-S loaded) activating mTORC1 (Homo sapiens (Human), UniProt Q15382). Put plainly: Rheb-dependent in vitro kinase assay (Rheb-IVK; LanthaScreen or Western readout). In kind it is biochemical. The note with it: Rheb-dependent in vitro kinase assay; read-out: IVK IC50.
A further assay concerns the target Rheb (Homo sapiens (Human), UniProt Q15382). Nature of the assay: Affinity Selection Mass Spectrometry (ASMS). In kind it is binding. Particulars: affinity (R3/R0) in Affinity Selection Mass Spectrometry assay. In short, it runs like this: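 Human Rheb (60 μM) with GDP (180 μM) and each compound at 2 μM, protein-plus versus protein-minus, incubated 30 min at room temperature, then washed by 10 kDa ultrafiltration. Retained ligand was released with MeCN and detected by UPLC-Q-TOF MS.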

Rheb, sequence (Q15382 1-169 limits assumed): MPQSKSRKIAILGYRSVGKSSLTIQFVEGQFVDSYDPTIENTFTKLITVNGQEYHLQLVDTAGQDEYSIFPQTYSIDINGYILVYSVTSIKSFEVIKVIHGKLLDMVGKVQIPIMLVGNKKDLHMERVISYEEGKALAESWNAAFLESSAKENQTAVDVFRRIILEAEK
HA-GST-Rheb (GTP-γ-S loaded) activating mTORC1, sequence (Q15382 1-181): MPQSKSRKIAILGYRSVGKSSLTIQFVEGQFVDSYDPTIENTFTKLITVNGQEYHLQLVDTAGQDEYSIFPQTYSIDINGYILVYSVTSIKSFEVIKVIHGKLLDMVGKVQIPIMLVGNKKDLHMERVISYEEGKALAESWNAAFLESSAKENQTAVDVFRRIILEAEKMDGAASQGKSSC

What is called IC50 is the concentration needed to halve the response being measured. For `CC(C)(C)OC(=O)N1CCN(c2cc(-c3nc4cc(Cl)c(Cl)cc4[nH]3)ccn2)CC1` [I-347], the IC50 in assay [1] was above 100 µM. In addition, the “ASMS (R3/R0)” value at Rheb is “B (an affinity (R3/R0) between 100% and 20%)”.

For the molecule `Clc1cc2[nH]c(-c3ccncc3)nc2c(OCC2CCCCC2)c1Cl` [I-348], in assay [1], the IC50 was above 100 µM. The “ASMS (R3/R0)” value at Rheb was “B (an affinity (R3/R0) between 100% and 20%)”.

On to `CN1CCN(C(=O)c2ccc(-c3nc4cc(Cl)c(Cl)cc4[nH]3)cc2)CC1` [I-349], for which, in assay [1], the IC50 was above 100 µM. On Rheb, the “ASMS (R3/R0)” value was “B (an affinity (R3/R0) between 100% and 20%)”.

As to `CC(C)(C)OC(=O)NCc1nc2cc(OCc3ccc(Cl)cc3)c(Cl)c(Cl)c2[nH]1` [I-350], the IC50 in assay [1] is above 100 µM. The “ASMS (R3/R0)” value on Rheb is “B (an affinity (R3/R0) between 100% and 20%)”.

As for `CN(C)c1cc(-c2nc3cc(Cl)c(Cl)cc3[nH]2)ccn1` [I-351], in assay [1], the IC50 was above 100 µM. Moreover, the “ASMS (R3/R0)” value at Rheb is “A (an affinity (R3/R0)>100%)”.

For `OCc1nc2cc(OCc3ccc(OC(F)(F)F)cc3)c(Cl)c(Cl)c2[nH]1` [I-352, (6,7-dichloro-5-(4-(trifluoromethoxy)benzyloxy)-1H-benzo[d]imidazol-2-yl)methanol], in assay [1], the half-inhibitory concentration (IC50) is above 3 µM. On Rheb, the “ASMS (R3/R0)” value is on record as “A (an affinity (R3/R0)>100%)”.

`Clc1ccc(COc2cc3nc(-c4ccncc4)[nH]c3c(Cl)c2Cl)cc1` [I-354, 6,7-dichloro-5-(4-chlorobenzyloxy)-2-(pyridin-4-yl)-1H-benzo[d]imidazole]: the IC50 in assay [1] is 10 to 100 µM. Besides, the “ASMS (R3/R0)” value on Rheb was “A (an affinity (R3/R0)>100%)”.

For `Clc1cc2nc(-c3cccnc3)[nH]c2c(Cl)c1Cl` [I-355], the IC50 in assay [1] is above 100 µM. Besides, the “ASMS (R3/R0)” value at Rheb is “B (an affinity (R3/R0) between 100% and 20%)”.

For `OCc1nc2cc(SCc3ccc(Cl)cc3)c(Cl)c(Cl)c2[nH]1` [I-356, (6,7-dichloro-5-(4-chlorobenzylthio)-1H-benzo[d]imidazol-2-yl)methanol], the concentration for half-maximal inhibition (IC50) in assay [1] was in the range of 10 to 100 µM. Besides, on Rheb, the “ASMS (R3/R0)” value is reported as “A (an affinity (R3/R0)>100%)”.

Take `Clc1c(Br)cc2nc(-c3ccncc3)[nH]c2c1Cl` [I-357]: the IC50 in assay [1] was above 100 µM. In addition, the “ASMS (R3/R0)” value on Rheb is “A (an affinity (R3/R0)>100%)”.

Turning to `OCc1nc2cc(Sc3ccc(Cl)cc3Cl)c(Cl)c(Cl)c2[nH]1` [I-358, (6,7-dichloro-5-(2,4-dichlorophenylthio)-1H-benzo[d]imidazol-2-yl)methanol], in assay [1], the IC50 was 10 to 100 µM. In addition, the “ASMS (R3/R0)” value on Rheb was “B (an affinity (R3/R0) between 100% and 20%)”.

As to `Clc1cc2nc(-c3ccnc4[nH]ccc34)[nH]c2cc1Cl` [I-359, 5,6-dichloro-2-(1H-pyrrolo[2,3-b]pyridin-4-yl)-1H-benzo[d]imidazole], the IC50 in assay [1] was 10 to 100 µM. The “ASMS (R3/R0)” value on Rheb is recorded as “A (an affinity (R3/R0)>100%)”.

In the case of `Nc1ccc(-c2nc3cc(Cl)c(Cl)cc3[nH]2)cc1` [I-360], the IC50 in assay [1] is above 100 µM. At Rheb, the “ASMS (R3/R0)” value was “B (an affinity (R3/R0) between 100% and 20%)”.

`OCc1nc2cc(Cl)c(SCc3ccc(Cl)cc3Cl)cc2[nH]1` [I-361, (5-chloro-6-(2,4-dichlorobenzylthio)-1H-benzo[d]imidazol-2-yl)methanol]: in assay [1], the concentration for half-maximal inhibition (IC50) lay in the range of 100 to 300 µM. In addition, the “ASMS (R3/R0)” value at Rheb was “B (an affinity (R3/R0) between 100% and 20%)”.

Take `CN1CCC(CCNC(=O)c2ccc(-c3nc4cc(Cl)c(Cl)cc4[nH]3)cc2)CC1` [I-362]: the IC50 in assay [1] is above 100 µM. Besides, at Rheb, the “ASMS (R3/R0)” value is listed as “A (an affinity (R3/R0)>100%)”.

Consider `COC(=O)c1ccc(-c2nc3cc(Cl)c(Cl)cc3[nH]2)cc1` [I-363, methyl 4-(5,6-dichloro-1H-benzo[d]imidazol-2-yl)benzoate], for which the IC50 in assay [1] lay in the range of 10 to 100 µM. The “ASMS (R3/R0)” value on Rheb is recorded as “A (an affinity (R3/R0)>100%)”.

As to `O=C(O)c1ccc(-c2nc3cc(Cl)c(Cl)cc3[nH]2)cc1` [I-364, 4-(5,6-dichloro-1H-benzo[d]imidazol-2-yl)benzoic acid], the IC50 in assay [1] lay in the range of 100 to 300 µM. In addition, the “ASMS (R3/R0)” value on Rheb is “B (an affinity (R3/R0) between 100% and 20%)”.

`O=C(O)c1ccc(Cn2c(-c3ccncc3)nc3cc(Cl)c(Cl)cc32)cc1` [I-365, 4-((5,6-dichloro-2-(pyridin-4-yl)-1H-benzo[d]imidazol-1-yl)methyl)benzoic acid]: in assay [1], the half-inhibitory concentration (IC50) fell in the range of 10 to 100 µM. For the same molecule, the “ASMS (R3/R0)” value on Rheb was “C (an affinity (R3/R0)<20%)”.

Consider `CN1CCN(c2ccc(-c3nc4cc(Cl)c(Cl)cc4[nH]3)cc2)CC1` [I-366, 5,6-dichloro-2-(4-(4-methylpiperazin-1-yl)phenyl)-1H-benzo[d]imidazole], for which the half-maximal inhibitory concentration (IC50) in assay [1] was 100 to 300 µM. The “ASMS (R3/R0)” value on Rheb is “A (an affinity (R3/R0)>100%)”.

In the case of `CN1CCN(c2cccc(-c3nc4cc(Cl)c(Cl)cc4[nH]3)c2)CC1` [I-367], in assay [1], the IC50 is above 100 µM. For the same molecule, the “ASMS (R3/R0)” value on Rheb was “B (an affinity (R3/R0) between 100% and 20%)”.

For the molecule `Clc1cc2nc(-c3ccnc(-c4ccccc4)c3)[nH]c2cc1Cl` [I-368], in assay [1], the IC50 was above 100 µM. For the same molecule, the “ASMS (R3/R0)” value at Rheb was “B (an affinity (R3/R0) between 100% and 20%)”.

For the molecule `N#Cc1ccc(-c2nc3cc(Cl)c(Cl)cc3[nH]2)cc1` [I-370, 4-(5,6-dichloro-1H-benzo[d]imidazol-2-yl)benzonitrile], in assay [1], the IC50 was 10 to 100 µM. In addition, the “ASMS (R3/R0)” value on Rheb is “B (an affinity (R3/R0) between 100% and 20%)”.

Take `OCc1nc2c(Sc3ccc(Cl)cc3Cl)c(Cl)c(Cl)cc2[nH]1` [I-371, (5,6-dichloro-4-(2,4-dichlorophenylthio)-1H-benzo[d]imidazol-2-yl)methanol]: the IC50 in assay [1] fell in the range of 10 to 100 µM. The “ASMS (R3/R0)” value at Rheb is “B (an affinity (R3/R0) between 100% and 20%)”.

For `Clc1cc2nc(-c3ccc(-c4ccncc4)cc3)[nH]c2cc1Cl` [I-372], the IC50 in assay [1] was above 100 µM. The “ASMS (R3/R0)” value on Rheb was “A (an affinity (R3/R0)>100%)”.

Regarding `OC1CC(COc2c(Cl)c(Cl)cc3c2nc2n3COC2)CC1O` (stereo not drawn) [I-373, 4-((6,7-dichloro-1,3-dihydrobenzo[d]oxazolo[3,4-a]imidazol-5-yloxy)methyl)cyclopentane-1,2-diol], the 50% inhibitory concentration (IC50) in assay [1] lay within 10 to 100 µM. The “ASMS (R3/R0)” value at Rheb is “C (an affinity (R3/R0)<20%)”.

Consider `CC(C)(C)OC(=O)c1ccc(Cn2c(-c3ccncc3)nc3cc(Cl)c(Cl)cc32)cc1` [I-374], for which the IC50 in assay [1] is above 100 µM. Moreover, the “ASMS (R3/R0)” value on Rheb is given as “C (an affinity (R3/R0)<20%)”.

As for `OCc1nc2cc(OCc3ccc(Cl)cc3)c(Cl)c(Cl)c2[nH]1` [I-375, (6,7-dichloro-5-(4-chlorobenzyloxy)-1H-benzo[d]imidazol-2-yl)methanol], the IC50 in assay [1] was below 10 µM. The “ASMS (R3/R0)” value on Rheb is reported as “A (an affinity (R3/R0)>100%)”.

Turning to `OCc1nc2c(OCC3CC=CC3)c(Cl)c(Cl)cc2[nH]1` [I-377], the IC50 in assay [1] was above 100 µM. In addition, the “ASMS (R3/R0)” value at Rheb is “B (an affinity (R3/R0) between 100% and 20%)”.

For the molecule `Clc1cc2nc(-c3ccncc3)[nH]c2cc1Cl` [I-378, 5,6-dichloro-2-(pyridin-4-yl)-1H-benzo[d]imidazole], the IC50 in assay [1] lay in the range of 10 to 100 µM. Further, the “ASMS (R3/R0)” value on Rheb was “B (an affinity (R3/R0) between 100% and 20%)”.

For the molecule `OCc1nc2c(OCC3CCCC3O)c(Cl)c(Cl)cc2[nH]1` (stereo not drawn) [I-379, 2-((5,6-dichloro-2-(hydroxymethyl)-1H-benzo[d]imidazol-4-yloxy)methyl)cyclopentanol], the IC50 in assay [1] was above 100 µM. For the same molecule, at Rheb, the “ASMS (R3/R0)” value is on record as “C (an affinity (R3/R0)<20%)”.

As for `OCc1nc2cc(Cl)c(OCCc3ccc(Cl)cc3)cc2[nH]1` [I-380, (5-chloro-6-(4-chlorophenethoxy)-1H-benzo[d]imidazol-2-yl)methanol], the half-inhibitory concentration (IC50) in assay [1] was 10 to 100 µM. Besides, the “ASMS (R3/R0)” value at Rheb is “B (an affinity (R3/R0) between 100% and 20%)”.

Take `OCc1nc2c(OCC3COCC3O)c(Cl)c(Cl)cc2[nH]1` (stereo not drawn) [I-381]: the IC50 in assay [1] is above 100 µM. Also, on Rheb, the “ASMS (R3/R0)” value is recorded as “C (an affinity (R3/R0)<20%)”.

With `Nc1cc(CCOc2c(Cl)c(Cl)cc3[nH]c(CO)nc23)ccn1` [I-382], the IC50 in assay [1] lay within 100 to 300 µM. In addition, the “ASMS (R3/R0)” value at Rheb is given as “C (an affinity (R3/R0)<20%)”.

`OCc1nc2c(OCC3CCCCC3O)cc(Cl)cc2[nH]1` (stereo not drawn) [I-390, 2-((6-chloro-2-(hydroxymethyl)-1H-benzo[d]imidazol-4-yloxy)methyl)cyclohexanol]: in assay [1], the IC50 was 100 to 300 µM. In addition, the “ASMS (R3/R0)” value at Rheb is “C (an affinity (R3/R0)<20%)”.

For the molecule `OCc1nc2c(OCC3CCCCC3)c(Cl)c(Cl)cc2[nH]1` [I-395, (5,6-dichloro-4-(cyclohexylmethoxy)-1H-benzo[d]imidazol-2-yl)methanol], the IC50 in assay [1] is below 10 µM. The “ASMS (R3/R0)” value on Rheb is “A (an affinity (R3/R0)>100%)”.

`OCc1nc2c(OCC3CCCC(O)C3)c(Cl)c(Cl)cc2[nH]1` (stereo not drawn) [I-396, 3-((5,6-dichloro-2-(hydroxymethyl)-1H-benzo[d]imidazol-4-yloxy)methyl)cyclohexanol]: the IC50 in assay [1] was in the range of 10 to 100 µM. The “ASMS (R3/R0)” value on Rheb was “C (an affinity (R3/R0)<20%)”.

Regarding `OCc1nc2c(OCC3CCC(O)CC3)c(Cl)c(Cl)cc2[nH]1` (stereo not drawn) [I-399, 4-((5,6-dichloro-2-(hydroxymethyl)-1H-benzo[d]imidazol-4-yloxy)methyl)cyclohexanol], the IC50 in assay [1] lay within 10 to 100 µM. Further, on Rheb, the “ASMS (R3/R0)” value is listed as “C (an affinity (R3/R0)<20%)”.

Turning to `Clc1ccc2nc(-c3ncco3)n(Cc3ccc(-c4nnn[nH]4)cc3)c2c1` [I-411, 2-(1-(4-(1H-tetrazol-5-yl)benzyl)-6-chloro-1H-benzo[d]imidazol-2-yl)oxazole], the IC50 in assay [1] was in the range of 10 to 100 µM. The “ASMS (R3/R0)” value on Rheb is on record as “C (an affinity (R3/R0)<20%)”.

Take `c1ccc(Oc2cccc3c2nc(-c2ncco2)n3Cc2ccc(-c3nnn[nH]3)cc2)cc1` [I-421, 2-(1-(4-(1H-tetrazol-5-yl)benzyl)-4-phenoxy-1H-benzo[d]imidazol-2-yl)oxazole]: in assay [1], the IC50 fell in the range of 10 to 100 µM. Moreover, the “ASMS (R3/R0)” value at Rheb was “C (an affinity (R3/R0)<20%)”.
